Laboratory results: patent US5789386A, “Fluorine-containing anthracycline derivatives having hydroxyl groups(s) mono- or di-o-aminoalkanoylated in the sugar moiety thereof” (priority 1995, dated 1998)
≈ marks a conversion by molar mass, not a printed value. Like-named read-outs stand apart in the source and are kept apart here. One block for each compound: values may come before it.

How the values were obtained:
Leukemia L-1210 cells = experiment: Antitumor test against leukemia L-1210 in CDF1 mice (T/C, %); assay type: in vivo, mouse (CDF1); details: for antitumor activities (in words): compared with FT-DM, FT-ADM, daunomycin, adriamycin or another test compound; for % Increase in life-span (T/C, %) / mice cured and surviving for 60 days or longer / mice tested: 9 days
Protocol: Thus, to evaluate the antitumor effects of the new compounds according to the first aspect of this invention against experimental tumors in animals, CDF1 mice (four mice per group) were intraperitoneally transplanted with cells of Leukemia L-1210 at an amount of 1×10^5 cells/mouse. Since an elapsed time of 24 hours from the transplantation of the leukemia cells, a test compound according to this invention was administered intraperitoneally to the mice under test for 9 consecutive days once per day. […] While, mice of the control group (the untreated group) were administered with only physiological saline after the transplantation of the L-1210 cells. During the observation period, the numbers of the surviving mice in the treated group and in the control group were counted, and the mean survival days of mice in the treated group and in the control group were then calculated. From the mean survival day (C) of the untreated mice of the control group and the mean survival day (T) of the treated mice of the treated group, there were evaluated percentages (%) of the increase in the life-span of the treated mice, as T/C %. For a comparison purpose, 7-O-(2,6-dideoxy-2-fluoro-α-L-talopyranosyl)daunomycinone (abbreviation: FT-DM); 7-O-(2,6-dideoxy-2-fluoro-α-L-talopyranosyl)adriamycinone(abbreviation: FT-ADM); and adriamycin were also tested in the same manner as above. Incidentally, the mean survival day of mice of the control group (the untreated group) was amounting to 8 to 9 days, and the mean survival day of mice of the comparative groups having received the administration of adriamycin was varying dependently on the dosage of adriamycin.
Notes; Asterisks (*) indicate that development of toxicity such as
toxicityrelated death or a body weight loss was observed on the
corresponding mice tested.

[1] = tested on: mouse leukemia, P388 cells; experiment: In vitro growth inhibition of P388 cells, 72 hours; assay type: cell-based
[2] = tested on: adriamycin-resistant P388 cells (P388/ADR); experiment: In vitro growth inhibition of adriamycin-resistant P388 cells (P388/ADR), 72 hours; assay type: cell-based; details: Mus musculus, 72 hours, test compounds as trifluoroacetate, read-out: IC50
[3] = P388, 72 hours, test compounds as trifluoroacetate, read-out: IC50
[4] = 0.6 mg/kg/day i.p., ">" = at least one of four mice survived 60 days or longer
[5] = 1.25 mg/kg/day i.p., ">" = at least one of four mice survived 60 days or longer
[6] = 2.5 mg/kg/day i.p., ">" = at least one of four mice survived 60 days or longer
[7] = 5 mg/kg/day i.p., ">" = at least one of four mice survived 60 days or longer
[8] = 0.3 mg/kg/day i.p., ">" = at least one of four mice survived 60 days or longer

Compound: COc1cccc2c1C(=O)c1c(O)c3c(c(O)c1C2=O)C[C@@](O)(C(=O)CO)C[C@@H]3O[C@@H]1O[C@@H](C)[C@@H](OC(=O)[C@H](C)N)[C@@H](O)[C@H]1F [Compound 9b, 7-O-(4-O-L-alanyl-2,6-dideoxy-2-fluoro-α-L-talopyranosyl)adriamycinone]
- antitumor activities (in words) (Leukemia L-1210 cells): remarkably improved antitumor activities in comparison with those of the parent compound, FT-ADM

Compound: COc1cccc2c1C(=O)c1c(O)c3c(c(O)c1C2=O)C[C@@](O)(C(=O)CO)C[C@@H]3O[C@@H]1O[C@@H](C(F)(F)F)[C@@H](OC(=O)[C@H](C)N)[C@@H](OC(=O)[C@H](C)N)[C@H]1F [Compound 31, 7-O-(3,4-di-O-L-alanyl-2,6-dideoxy-2,6,6,6-tetrafluoro-α-L-talopyranosyl)adriamycinone]
- IC50 [1, 3]: < 0.0098 µg/mL
- IC50 [2]: 0.14 µg/mL (≈ 0.185 µM)

- IC50 [1, 3]: 0.016 µg/mL (≈ 0.0176 µM)
- IC50 [2]: 0.17 µg/mL (≈ 0.187 µM)
Compound: COc1cccc2c1C(=O)c1c(O)c3c(c(O)c1C2=O)C[C@@](O)(C(=O)CO)C[C@@H]3O[C@@H]1O[C@@H](C(F)(F)F)[C@@H](OC(=O)[C@@H](N)Cc2ccccc2)[C@@H](OC(=O)[C@@H](N)Cc2ccccc2)[C@H]1F [Compound 37, 7-O-(2,6-dideoxy-2,6,6,6-tetrafuluoro-3,4-di-O-L-phenylalanyl-α-L-talopyranosyl)adriamycinone]

Compound: COc1cccc2c1C(=O)c1c(O)c3c(c(O)c1C2=O)C[C@@](O)(C(C)=O)C[C@@H]3O[C@@H]1O[C@@H](C)[C@@H](O)[C@@H](O)[C@H]1F [FT-DM, 7-O-(2,6-dideoxy-2-fluoro-α-L-talopyranosyl)daunomycinone, reference compound]
- % Increase in life-span (T/C, %) (Leukemia L-1210 cells; 0.15 mg/kg/day i.p.): 105%
- % Increase in life-span (T/C, %) (Leukemia L-1210 cells; [4]): 125%
- % Increase in life-span (T/C, %) (Leukemia L-1210 cells; [5]): 171%
- % Increase in life-span (T/C, %) (Leukemia L-1210 cells; [6]): 217%
- % Increase in life-span (T/C, %) (Leukemia L-1210 cells; [7]): 184%

Compound: COc1cccc2c1C(=O)c1c(O)c3c(c(O)c1C2=O)C[C@@](O)(C(=O)CO)C[C@@H]3O[C@@H]1O[C@@H](C)[C@@H](OC(=O)CN)[C@@H](OC(=O)CN)[C@H]1F [Compound 11a, 7-O-(2,6-dideoxy-2-fluoro-3,4-di-O-glycyl-α-L-talopyranosyl)adriamycinone]
- % Increase in life-span (T/C, %) (Leukemia L-1210 cells; 0.15 mg/kg/day i.p.): 111%
- % Increase in life-span (T/C, %) (Leukemia L-1210 cells; [8]): 125%
- % Increase in life-span (T/C, %) (Leukemia L-1210 cells; [4]): 170%
- % Increase in life-span (T/C, %) (Leukemia L-1210 cells; [5]): 321%
- mice cured and surviving for 60 days or longer / mice tested (Leukemia L-1210 cells; 2.5 mg/kg/day i.p.): 1/4
- % Increase in life-span (T/C, %) (Leukemia L-1210 cells; [6]): > 430%
- mice cured and surviving for 60 days or longer / mice tested (Leukemia L-1210 cells; 5 mg/kg/day i.p.): 2/4
- % Increase in life-span (T/C, %) (Leukemia L-1210 cells; [7]): > 518%
- IC50 ([1]; P388, 72 h): < 0.0098 µg/mL
- IC50 [2]: 0.32 µg/mL (≈ 0.473 µM)

Compound: COc1cccc2c1C(=O)c1c(O)c3c(c(O)c1C2=O)C[C@@](O)(C(=O)CO)C[C@@H]3O[C@H]1C[C@H](OC(=O)CN)[C@H](OC(=O)CN)[C@H](C(F)(F)F)O1 [Compound 25, 7-O-(2,6-dideoxy-6,6,6-trifluoro-3,4-di-O-glycyl-α-L-lyxo-hexopryranosyl)adriamycinone]
- IC50 ([1]; P388, 72 h): < 0.0098 µg/mL

- IC50 [1, 3]: 0.032 µg/mL (≈ 0.0406 µM)
- IC50 [2]: 0.27 µg/mL (≈ 0.342 µM)
Compound: COc1cccc2c1C(=O)c1c(O)c3c(c(O)c1C2=O)C[C@@](O)(C(=O)CO)C[C@@H]3O[C@@H]1O[C@@H](C)[C@@H](OC(=O)[C@@H](N)CC(C)C)[C@@H](OC(=O)[C@@H](N)CC(C)C)[C@H]1F [Compound 11e, 7-O-(2,6-dideoxy-2-fluoro-3,4-di-O-L-leucyl-α-L-talopyranosyl)adriamycinone]

Compound: COc1cccc2c1C(=O)c1c(O)c3c(c(O)c1C2=O)C[C@@](O)(C(=O)CO)C[C@@H]3O[C@@H]1O[C@@H](C)[C@@H](OC(=O)[C@@H](N)C(C)C)[C@@H](OC(=O)[C@@H](N)C(C)C)[C@H]1F [Compound 11d, 7-O-(2,6-dideoxy-2-fluoro-3,4-di-O-L-valyl-α-L-talopyranosyl)adriamycinone]
- IC50 ([1]; P388, 72 h): < 0.0098 µg/mL
- IC50 [2]: 0.32 µg/mL (≈ 0.421 µM)

- IC50 [1, 3]: 0.02 µg/mL (≈ 0.0224 µM)
- IC50 [2]: 0.28 µg/mL (≈ 0.314 µM)
Compound: COc1cccc2c1C(=O)c1c(O)c3c(c(O)c1C2=O)C[C@@](O)(C(=O)CO)C[C@@H]3O[C@H]1C[C@H](OC(=O)[C@@H](N)Cc2ccccc2)[C@H](OC(=O)[C@@H](N)Cc2ccccc2)[C@H](C(F)(F)F)O1 [Compound 49, 7-O-(2,6-dideoxy-6,6,6-trifluoro-3,4-di-O-L-phenylalanyl-α-L-lyxo-hexopyranosyl)adriamycinone]

Compound: COc1cccc2c1C(=O)c1c(O)c3c(c(O)c1C2=O)C[C@@](O)(C(=O)CO)C[C@@H]3O[C@@H]1O[C@@H](C)[C@@H](O)[C@@H](O)[C@H]1F [FT-ADM, 7-O-(2,6-dideoxy-2-fluoro-α-L-talopyranosyl)adriamycinone, reference compound]
- % Increase in life-span (T/C, %) (Leukemia L-1210 cells; 0.15 mg/kg/day i.p.): 127%
- % Increase in life-span (T/C, %) (Leukemia L-1210 cells; [8]): 182%
- % Increase in life-span (T/C, %) (Leukemia L-1210 cells; [4]): 185%
- % Increase in life-span (T/C, %) (Leukemia L-1210 cells; [5]): 275%
- mice cured and surviving for 60 days or longer / mice tested (Leukemia L-1210 cells; 2.5 mg/kg/day i.p.): 1/4
- % Increase in life-span (T/C, %) (Leukemia L-1210 cells; [6]): > 352%
- mice cured and surviving for 60 days or longer / mice tested (Leukemia L-1210 cells; 5 mg/kg/day i.p.): 4/4
- % Increase in life-span (T/C, %) (Leukemia L-1210 cells; [7]): > 740%

Compound: COc1cccc2c1C(=O)c1c(O)c3c(c(O)c1C2=O)C[C@@](O)(C(=O)CO)C[C@@H]3O[C@@H]1O[C@@H](C)[C@@H](OC(=O)[C@@H](N)Cc2ccccc2)[C@@H](OC(=O)[C@@H](N)Cc2ccccc2)[C@H]1F [Compound 11c, 7-O-(2,6-dideoxy-2-fluoro-3,4-di-O-L-phenylalanyl-α-L-talopyranosyl)adriamycinone]
- % Increase in life-span (T/C, %) (Leukemia L-1210 cells; 0.15 mg/kg/day i.p.): 123%
- % Increase in life-span (T/C, %) (Leukemia L-1210 cells; [8]): 130%
- % Increase in life-span (T/C, %) (Leukemia L-1210 cells; [4]): 143%
- % Increase in life-span (T/C, %) (Leukemia L-1210 cells; [5]): 170%
- % Increase in life-span (T/C, %) (Leukemia L-1210 cells; [6]): 177%
- % Increase in life-span (T/C, %) (Leukemia L-1210 cells; [7]): 253%
- IC50 [1, 3]: 0.026 µg/mL (≈ 0.0303 µM)
- IC50 [2]: 0.14 µg/mL (≈ 0.163 µM)

Compound: COc1cccc2c1C(=O)c1c(O)c3c(c(O)c1C2=O)C[C@@](O)(C(=O)CO)C[C@@H]3O[C@H]1C[C@H](OC(=O)[C@H](C)N)[C@H](OC(=O)[C@H](C)N)[C@H](C(F)(F)F)O1 [Compound 43, 7-O-(3,4-di-O-L-alanyl-2,6-dideoxy-6,6,6-trifluoro-α-L-lyxo-hexopyranosyl)adriamycinone]
- IC50 ([1]; P388, 72 h): < 0.0098 µg/mL
- IC50 [2]: 0.22 µg/mL (≈ 0.297 µM)

Compound: COc1cccc2c1C(=O)c1c(O)c3c(c(O)c1C2=O)C[C@@](O)(C(=O)CO)C[C@@H]3O[C@@H]1O[C@@H](C)[C@@H](O)[C@@H](OC(=O)[C@H](C)N)[C@H]1F [Compound 8b, 7-O-(3-O-L-alanyl-2,6-dideoxy-2-fluoro-α-L-talopyranosyl)adriamycinone]
- antitumor activities (in words) (Leukemia L-1210 cells): remarkably improved antitumor activities in comparison with those of the parent compound, FT-ADM

Compound: COc1cccc2c1C(=O)c1c(O)c3c(c(O)c1C2=O)C[C@@](O)(C(=O)CO)C[C@@H]3O[C@@H]1O[C@@H](C(F)(F)F)[C@@H](OC(=O)CN)[C@@H](OC(=O)CN)[C@H]1F [Compound 18, 7-O-(2,6-dideoxy-2,6,6,6-tetrafluoro-3,4-di-O-glycyl-α-L-talopyranosyl)adriamycinone]
- IC50 [1, 3]: < 0.0098 µg/mL
- IC50 [2]: 0.28 µg/mL (≈ 0.383 µM)
